We go through two compounds from US8859612B2, “Use of hesperidin or one of its derivatives for making a medicine for bone formation stimulation” (Institut National de la Recherche Agronomique (INRA), priority 2002, dated 2014).

The subject of data set [1] is hPOB-tert cells. Kind of data set: Alkaline phosphatase activity in hPOB-tert cells (Example 2). The format is cell-based, human. The method, then: (§1) We have tested three concentrations of hesperetin in the hPOB culture medium seeded to confluence: 1, 10 and 50 μM. Furthermore, these media lacked osteoblast differentiation factors (Vitamin D3 and dexamethasone). The control contained 0.1% DMSO (hesperetin being dissolved in the DMSO). The cells were incubated in these media for 35 days. The alkaline phosphatase activity, a marker of osteoblast differentiation, was measured on a cell lysate by using a commercial kit (Sigma No 247). The cells had been harvested at 0, 4, 8 and 12 days of incubation. The calcium content of the cells, the mineralisation marker, was quantified on a cell lysate after 21 days of incubation in the different media, with the aid of a commercial kit (Sigma No587).

In data set [2] the test system is hPOB-tert cells. Description: Accumulation of calcium in hPOB-tert cells (Example 2). In kind it is cell-based, human. Particulars: hesperetin 50 μM, 21 days of incubation, vs control cells (0.1% DMSO). The method, then: as §1
For data set [3], the system named is oophorectomised rat (OVX) and sham-operated control rats (SH). Description: Uterine weight (Example 1). In kind it is in vivo, Wistar rats. Particulars: 3 months; for uterine weight: hesperidin 0.5% in diet. The text has this: (§2) In order to study the possible impact of this molecule on bone tissue, 40 female 3 months old Wistar rats (266±2 g) were used. These animals were accustomed to a basic semi-synthetic diet for the 7 days preceding the start of the period of experimentation. At D0, 20 rats were sham-operated, the other 20 were oophorectomised. Distributed in groups of 10, they were fed on various diets for 3 months, at the end of which they were sacrificed. The last week before being killed, from D85 to D90, the rats were inspected and the urine was collected (over a period of 24 hours). Similarly, the body composition of the rats was measured. After being killed the plasma and the femurs were collected for different analyses [Femurs: resistance to rupture, densitometry; Plasma: osteocalcinemia (marker for osteoblast activity), hesperetin level: Urines: desoxypyridinoline (marker for bone resorption)]. Throughout the entire duration of the experimentation, the rats were weighed once a week. The daily quantity of food distributed to each animal was 20 g.
(§3) 10 T SH and 10 T OVX: sham-operated and oophorectomised rats receiving a standard control diet for 3 months
(§4) 10 Hp SH et 10 Hp OVX: sham-operated and oophorectomised rats receiving a standard control diet supplemented with hesperidin (0.5%) for 3 months
The uterine weight was evaluated in order to validate the castration.

Data set [4] has the same test system. Description: Femoral biomechanics (Example 1). The format is in vivo, Wistar rats.
Text: as §2, §3, §4

For data set [5] the test system is unchanged. Description: Femoral densitometry (Example 1). In kind it is in vivo, Wistar rats. As to conditions: for Total femoral density (T-BMD): hesperidin 0.5% in diet, 3 months.
Text: as §2, §3, §4
The densities are expressed in g/cm^2.

Data set [6] has the same test system. Description: Urinary excretion of desoxypyridinoline, marker for bone resorption (Example 1). The format is in vivo, Wistar rats.
Text: as §2, §3, §4

Data set [7] has the same test system. Description: Plasma levels of osteocalcin, marker for osteoblast activity (Example 1). Particulars: Hp SH vs T SH, p<0.05 (FIG. 4). In kind it is in vivo, Wistar rats.
Text: as §2, §3, §4

Data set [8] can be described thus: Circulating levels of hesperetin (Example 1). In kind it is in vivo, Wistar rats. As to conditions: OVX and SH rats receiving diet supplemented with hesperidin 0.5%, 3 months.
Text: as §2, §4

Data set [9] relates to six months' old oophorectomised rat. Description: Uterine weight, six months' old rats (Example 3). The format is in vivo, Wistar rats. The method, then:
(§5) The experiments were performed on 48 six months' old female Wistar rats: 24 oophorectomised (OVX) and 24 sham-operated (SH).
(§6) After the surgical operation on D0, the animals were given seven days to accustom themselves to their surroundings. At the end of this period of adaptation, the rodents were distributed on the basis of weight parameters in 4 homogeneous groups and received daily for 72 days 22 g of the following diets: • group SH: 12 sham-operated rats fed with the control diet • group OVX: 12 oophorectomised rats which received the control diet • group SH Hp: 12 sham-operated rats fed with the hesperidin diet • group OVX Hp: 12 oophorectomised rats which received the hesperidin diet
When sacrificed (D90), the animals were anesthetised by an intra-peritoneal injection of chloral (Fluka: 8% solution; 0.4 ml/100 g live weight). Blood samples were collected from the abdominal aorta. The uterus was weighed.

Data set [10] has the same test system. Kind of data set: Bone mineral density of the femur, six months' old rats (Example 3). Particulars: six months' old OVX rats, consumption of hesperidin (FIG. 11). In kind it is in vivo, Wistar rats. The method, then:
as §5, §6
The femurs were extracted and adjacent soft tissues were removed, then the femurs were stored in 80% ethanol for the determination of bone density.

Data set [11] shares this test system. Description: Biomechanical properties of the femur, six months' old rats (Example 3). The format is in vivo, Wistar rats. As to conditions: hesperidin diet (FIG. 14). The method, then: as §5, §6
The mechanical properties of the femur of the individuals of the different groups of animals were analysed.

Molecules are shown by their SMILES.

Take `COc1ccc([C@@H]2CC(=O)c3c(O)cc(O)cc3O2)cc1O` [hesperetin, (S)-2,3-dihydro-5,7-dihydroxy-2-(3-hydroxy-4-methoxyphenyl)-4H-1-benzopyran-4-one]: the “alkaline phosphatase activity (osteoblast differentiation)” value in the data set with hPOB-tert cells [1] (hesperetin 1 μM, vs untreated cells, no vitamin D3 or dexamethasone) was “lacks effect”; in the data set on hPOB-tert cells [1] (hesperetin 10 μM, from the 4th day onwards, plateau on the 8th day), “increase”; in the data set with hPOB-tert cells [1] (hesperetin 50 μM, from the 4th day onwards, plateau on the 8th day) it was “most efficacious”. The “calcium deposition (calcium content of the cells)” value with hPOB-tert cells [2] is “stimulate calcium deposition”.

In the case of `COc1ccc([C@@H]2CC(=O)c3c(O)cc(O[C@@H]4O[C@H](CO[C@@H]5O[C@@H](C)[C@H](O)[C@@H](O)[C@H]5O)[C@@H](O)[C@H](O)[C@H]4O)cc3O2)cc1O` [hesperidin, (S)-7-[[6-0-(6-deoxy-α-L-mannopyranosyl)-β-D-glucopyranosyl]oxy]-2,3-dihydro-5-hydroxy-2-(3-hydroxy-4-methoxyphenyl)-4H-1-benzopyran-4-one], the uterine weight in data set [3] (Hp OVX: oophorectomised rats, ** p<0.01 vs SH) is recorded as 238.6 ± 2.23** mg; in data set [3] (Hp SH: sham-operated rats), 659.4 ± 8.96 mg. The uterotrophic effect result is on record as “lack a uterotrophic effect” in [3] (uterine weight not modified by consumption of hesperidin 0.5% in diet) and “lacks a uterotrophic effect” in data set [9] (six months' old rats, hesperidin diet (FIG. 10)). The “Femoral resistance to rupture” value in data set [4] (Hp SH: sham-operated rats, hesperidin 0.5% in diet, 3 months) came out at 106.3 ± 5.3 N. Moreover, the “femoral resistance to rupture, effect in words” value in data set [4] (oophorectomised rats, diet supplemented with hesperidin) is “tendency to improve”. For the same compound, the “Total femoral density (T-BMD)” value in [5] (Hp OVX: oophorectomised rats) turned out to be 0.2445 g/cm^2; in [5] (Hp SH: sham-operated rats) it was 0.2501 g/cm^2. Also, in data set [5] (both OVX and SH rats vs groups on standard diet, p<0.05), the “diaphyseal femoral density, effect in words” value was “significantly improves”. Besides, the “metaphyseal femoral density (M-BMD)” value in data set [5] (intact or oophorectomised rats on hesperidin diet vs standard diet (FIG. 2)) was “increase”. Further, in data set [5] (non-castrated animals, by comparison with T SH), the “metaphyseal femoral density (M-BMD), mineralisation” value was “improvement of the mineralisation”. Moreover, the “total femoral density, effect on demineralisation induced by oophorectomy” value in data set [5] (oophorectomised rats, consumption of hesperidin) is on record as “completely prevents this demineralisation”. Further, the “total femoral density, effect in words” value in data set [5] (sham-operated (SH) rats, consumption of hesperidin) was “significantly improves”. For the same compound, the “urinary excretion of DPD” value in data set [6] (Hp SH rats in comparison with T SH) is on record as “significantly diminished”. Also, in [6] (OVX rats, consumption of hesperidin (FIG. 3)), the “urinary excretion of desoxypyridinoline: increase of bone resorption induced by oophorectomy” value is reported as “prevented”. Moreover, the “plasma levels of osteocalcin (bone accretion)” value in data set [7] is “stimulates bone accretion”. Further, the “mean plasma level of aglycone (hesperetin)” value in data set [8] is 12.53 ± 2.48 µM. Besides, the “uterine atrophy following ovarian ablation” value in data set [9] (OVX rats, consumption of hesperidin (FIG. 10)) is reported as “not prevented”. For the same compound, the “demineralisation of the femur (total bone mineral density)” value in data set [10] is “prevented (at least partially)”. In addition, the “biomechanical properties of the femur (femoral load at rupture)” value is “preserve them” in data set [11] (OVX Hp: six months' old oophorectomised rats) and “improve them” in data set [11] (intact (sham-operated) six months' old rats).
